From US9206130B2, “Quinoline derivatives as AXL kinase inhibitors” (Max-Planck-Gesellschaft zur Förderung der Wissenschaften …, priority 2008, dated 2015)
Structures can show the parent of a compound that is named as a salt.

Experiments:
[1] = target: T1, wild type AXL (wtAXL) receptor tyrosine kinase (Homo sapiens, UniProt P30530); test: NIH-3T3-AXL cellular tyrosine kinase assay (inhibition of AXL phosphorylation); assay type: cell-based; conditions: AXL phosphorylation in NIH-3T3-AXL (clone 22) cells, serum-depleted, 2 h with compound, immunoprecipitation / anti-phosphotyrosine blot
T1 construct: WtAXL cDNA was cloned into vector pLXSN(ESK) and transfected into Phoenix E packaging cells; expressed in transfected cells; host or cells: NIH3T3 N7 mouse fibroblasts, retrovirally infected (clone 22)
T1 sequence (P30530 26-894): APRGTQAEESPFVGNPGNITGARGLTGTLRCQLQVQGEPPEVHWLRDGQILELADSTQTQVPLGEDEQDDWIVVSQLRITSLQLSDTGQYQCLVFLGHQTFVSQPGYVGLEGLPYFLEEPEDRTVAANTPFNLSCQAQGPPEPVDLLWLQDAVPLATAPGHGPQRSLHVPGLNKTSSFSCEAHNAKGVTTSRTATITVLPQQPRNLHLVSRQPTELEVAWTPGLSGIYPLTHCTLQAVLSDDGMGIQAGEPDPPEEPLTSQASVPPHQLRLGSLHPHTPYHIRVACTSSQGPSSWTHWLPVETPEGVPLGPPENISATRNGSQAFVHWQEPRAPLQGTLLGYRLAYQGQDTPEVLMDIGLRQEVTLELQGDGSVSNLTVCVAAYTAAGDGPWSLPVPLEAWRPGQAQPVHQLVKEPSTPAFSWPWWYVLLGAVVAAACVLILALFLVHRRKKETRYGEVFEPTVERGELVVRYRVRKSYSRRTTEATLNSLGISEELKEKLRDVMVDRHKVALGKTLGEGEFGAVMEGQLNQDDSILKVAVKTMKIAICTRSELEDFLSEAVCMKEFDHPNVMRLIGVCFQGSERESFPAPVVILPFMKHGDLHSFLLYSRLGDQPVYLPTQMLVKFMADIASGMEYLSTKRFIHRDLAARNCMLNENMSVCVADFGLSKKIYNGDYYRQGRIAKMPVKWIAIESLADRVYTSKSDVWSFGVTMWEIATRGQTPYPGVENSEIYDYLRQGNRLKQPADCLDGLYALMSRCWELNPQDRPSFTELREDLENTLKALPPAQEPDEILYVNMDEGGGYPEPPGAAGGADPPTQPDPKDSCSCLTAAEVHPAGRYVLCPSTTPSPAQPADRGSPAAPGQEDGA
Experimental: 3) Inhibitory Activity of Compounds on Axl Phosphorylation in NIH-3T3-AXL Cellular Tyrosine Kinase Assay
The viral supernatant was collected and used to infect target cells NIH3T3 N7. Monoclonal NIH3T3-AXL cell lines stably expressing wtAXL were generated by selecting retrovirally infected cells in medium containing puromycin (2 μg/ml) and subsequent clonal separation.
NIH-3T3-AXL Cellular Kinase Assay
Serial dilutions of compounds were added, and the cells were further incubated or 2 h. […] The clarified cell lysate (10 min at 13000 rpm at 4° C.) were used for immunoprecipitation. Equal amounts of protein were mixed with 2 μg anti-AXL polyclonal antibody (homemade) and 20 μl Protein A sepharose beads, and rotated for 6 hr at 4° C. After immunoprecipitation, the beads were washed three times with 1×HNTG (50 mM HEPES (pH 7.5), 150 mM NaCl, 10% Glycerol, 0.2% Triton X-100). The final pellet was suspended in 20 μl 2× Laemmli buffer, and boiled for 5 min at 100° C. […] The membrane was then incubated with anti-phosphotyrosine antibody (4G10) overnight at 4° C. followed by washing with 1×TBST buffer three times. After incubating membrane with HRP-conjugated anti-mouse secondary antibody for 1 hour at room temperature followed by washing with 1×TBST buffer three times, the proteins were visualized by ECL.

IC50 [1] [µM] | melting point [°C] | SMILES
2.26 | 238 to 239 | COc1cc2nccc(Oc3ccc(NS(=O)(=O)c4cccc(OC(F)F)c4)c(F)c3)c2cc1OC [Example A15, 3-Difluoromethoxy-N-[4-(6,7-dimethoxy-quinolin-4-yloxy)-2-fluoro-phenyl]-benzenesulfonamide]
1.81 | 224 to 225 | COc1cc2nccc(Oc3ccc(NS(=O)(=O)/C=C/c4ccccc4)c(F)c3)c2cc1OC [Example A16, 2-Phenyl-ethenesulfonic acid [4-(6,7-dimethoxy-quinolin-4-yloxy)-2-fluoro-phenyl]-amide]
0.89 | 243 to 245 | COc1cc2nccc(Oc3ccc(NS(=O)(=O)c4cccc5ccccc45)c(F)c3)c2cc1OC [Example A17, Naphthalene-1-sulfonic acid [4-(6,7-dimethoxy-quinolin-4-yloxy)-2-fluoro-phenyl]-amide]
2.1 | 223 to 225 | COc1cc2nccc(Oc3ccc(NS(=O)(=O)c4cc(Cl)sc4Cl)c(F)c3)c2cc1OC [Example A18, 2,5-Dichloro-thiophene-3-sulfonic acid [4-(6,7-dimethoxy-quinolin-4-yloxy)-2-fluoro-phenyl]-amide]
4.5 | 199 to 201 | COc1cc2nccc(Oc3ccc(NS(=O)(=O)c4ccc(Br)c(C)c4)c(F)c3)c2cc1OC [Example A19, 4-Bromo-N-[4-(6,7-dimethoxy-quinolin-4-yloxy)-2-fluoro-phenyl]-3-methyl-benzenesulfonamide]
5.05 | 188 to 190 | COc1cc2nccc(Oc3ccc(NS(=O)(=O)c4ccc(F)c(F)c4F)c(F)c3)c2cc1OC [Example A20, N-[4-(6,7-Dimethoxy-quinolin-4-yloxy)-2-fluoro-phenyl]-2,3,4-trifluoro-benzenesulfonamide]
4.7 | 218 to 220 | COc1cc2nccc(Oc3ccc(NS(=O)(=O)c4ccc(C)s4)c(F)c3)c2cc1OC [Example A21, 5-Methyl-thiophene-2-sulfonic acid [4-(6,7-dimethoxy-quinolin-4-yloxy)-2-fluoro-phenyl]-amide]
9.6 | 210 to 212 | COc1cc2nccc(Oc3ccc(NS(=O)(=O)c4ccco4)c(F)c3)c2cc1OC [Example A22, Furan-2-sulfonic acid [4-(6,7-dimethoxy-quinolin-4-yloxy)-2-fluoro-phenyl]-amide]
2.4 | 255 to 257 | COc1cc2nccc(Oc3ccc(NS(=O)(=O)c4cccc(Br)c4)c(F)c3)c2cc1OC [Example A24, 3-Bromo-N-[4-(6,7-dimethoxy-quinolin-4-yloxy)-2-fluoro-phenyl]-benzenesulfonamide]
> 10 |  | COc1cc2nccc(Oc3ccc(NS(=O)(=O)c4ccc(Cl)cc4F)cc3OC)c2cc1OC [Example A141, 4-Chloro-N-[4-(6,7-dimethoxy-quinolin-4-yloxy)-3-methoxy-phenyl]-2-fluoro-benzenesulfonamide]
0.695 |  | COc1cc2c(Oc3ccc(NS(=O)(=O)c4cccc5ccccc45)cc3F)ccnc2cc1OCCCN [Example D02, Naphthalene-1-sulfonic acid {4-[7-(3-amino-propoxy)-6-methoxy-quinolin-4-yloxy]-3-fluoro-phenyl}-amide hydrochloride]
0.837 |  | COc1cc2c(Oc3ccc(NS(=O)(=O)c4cccc(-c5ccccc5)c4)cc3F)ccnc2cc1OCCCN [Example D03, Biphenyl-3-sulfonic acid {4-[7-(3-amino-propoxy)-6-methoxy-quinolin-4-yloxy]-3-fluoro-phenyl}-amide hydrochloride]
0.364 |  | COc1cc2c(Oc3ccc(NS(=O)(=O)c4ccccc4OC(F)(F)F)cc3F)ccnc2cc1OCCCN [Example D15, N-{4-[7-(3-Amino-propoxy)-6-methoxy-quinolin-4-yloxy]-3-fluoro-phenyl}-2-trifluoromethoxy-benzenesulfonamide hydrochloride]
 | 185 to 188 | COc1cc2c(Oc3ccc(NS(=O)(=O)c4ccccc4Br)cc3F)ccnc2cc1OCCCN1CCOCC1 [Example D49, 2-Bromo-N-{3-fluoro-4-[6-methoxy-7-(3-morpholin-4-yl-propoxy)-quinolin-4-yloxy]-phenyl}-benzenesulfonamide]

Continued, compound first:

SMILES | IC50 [1] [µM] | melting point [°C]
COc1cc2nccc(Oc3ccc(NS(=O)(=O)c4cccc(C#N)c4)c(F)c3)c2cc1OC [Example A1, 3-Cyano-N-[4-(6,7-dimethoxy-quinolin-4-yloxy)-2-fluoro-phenyl]-benzenesulfonamide] | 4.5 | 223 to 224
COc1cc2nccc(Oc3ccc(NS(=O)(=O)c4ccc(F)c(F)c4)c(F)c3)c2cc1OC [Example A3, N-[4-(6,7-Dimethoxy-quinolin-4-yloxy)-2-fluoro-phenyl]-3,4-difluoro-benzenesulfonamide] | 3.4 | 217 to 219
COc1cc2nccc(Oc3ccc(NS(=O)(=O)c4cccs4)c(F)c3)c2cc1OC [Example A4] | 6 | 214 to 216
COc1cc2nccc(Oc3ccc(NS(=O)(=O)c4cc(Cl)cc(Cl)c4O)c(F)c3)c2cc1OC [Example A5, 3,5-Dichloro-N-[4-(6,7-dimethoxy-quinolin-4-yloxy)-2-fluoro-phenyl]-2-hydroxy-benzenesulfonamide] | 0.5 | 232 to 234
COc1cc2nccc(Oc3ccc(NS(=O)(=O)c4ccc(C)c(F)c4)c(F)c3)c2cc1OC [Example A6, N-[4-(6,7-Dimethoxy-quinolin-4-yloxy)-2-fluoro-phenyl]-3-fluoro-4-methyl-benzenesulfonamide] | 4.3 | 211 to 212
COc1cc2nccc(Oc3ccc(NS(=O)(=O)c4sc(NC(C)=O)cc4C)c(F)c3)c2cc1OC [Example A7, N-{5-[4-(6,7-Dimethoxy-quinolin-4-yloxy)-2-fluoro-phenylsulfamoyl]-4-methyl-thiophen-2-yl}-acetamide] | > 10 | 133 to 135
COC(=O)c1sccc1S(=O)(=O)Nc1ccc(Oc2ccnc3cc(OC)c(OC)cc23)cc1F [Example A9, 3-[4-(6,7-Dimethoxy-quinolin-4-yloxy)-2-fluoro-phenylsulfamoyl]-thiophene-2-carboxylic acid methyl ester] | 3.7 | 189 to 190
COc1cc2nccc(Oc3ccc(NS(=O)(=O)c4ccc(Br)c(F)c4)c(F)c3)c2cc1OC [Example A11, 4-Bromo-N-[4-(6,7-dimethoxy-quinolin-4-yloxy)-2-fluoro-phenyl]-3-fluoro-benzenesulfonamide] | 2.26 | 209 to 211
COc1cc2nccc(Oc3ccc(NS(=O)(=O)c4ccc(F)c(Cl)c4)c(F)c3)c2cc1OC [Example A12, 3-Chloro-N-[4-(6,7-dimethoxy-quinolin-4-yloxy)-2-fluoro-phenyl]-4-fluoro-benzenesulfonamide] | 1.26 | 208 to 210
COc1cc2nccc(Oc3ccc(NS(=O)(=O)c4ccc(Cl)cc4F)c(F)c3)c2cc1OC [Example A13, 4-Chloro-N-[4-(6,7-dimethoxy-quinolin-4-yloxy)-2-fluoro-phenyl]-2-fluoro-benzenesulfonamide] | 2.9 | 218 to 219
COc1cc2nccc(Oc3ccc(NS(=O)(=O)c4c(F)cccc4F)c(F)c3)c2cc1OC [Example A14, N-[4-(6,7-Dimethoxy-quinolin-4-yloxy)-2-fluoro-phenyl]-2,6-difluoro-benzenesulfonamide] | 1.4 | 223 to 225
